35 molecules from ChEMBL document CHEMBL1201862, “PubChem BioAssay data set” (2004) can be followed below.

In assay [1] the target is T1, Cytochrome P450 1A2 (Homo sapiens, UniProt P05177).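 Note: PubChem cytochrome P450 panel assay, CYP1A2 panel member.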
T1 sequence (P05177 whole entry): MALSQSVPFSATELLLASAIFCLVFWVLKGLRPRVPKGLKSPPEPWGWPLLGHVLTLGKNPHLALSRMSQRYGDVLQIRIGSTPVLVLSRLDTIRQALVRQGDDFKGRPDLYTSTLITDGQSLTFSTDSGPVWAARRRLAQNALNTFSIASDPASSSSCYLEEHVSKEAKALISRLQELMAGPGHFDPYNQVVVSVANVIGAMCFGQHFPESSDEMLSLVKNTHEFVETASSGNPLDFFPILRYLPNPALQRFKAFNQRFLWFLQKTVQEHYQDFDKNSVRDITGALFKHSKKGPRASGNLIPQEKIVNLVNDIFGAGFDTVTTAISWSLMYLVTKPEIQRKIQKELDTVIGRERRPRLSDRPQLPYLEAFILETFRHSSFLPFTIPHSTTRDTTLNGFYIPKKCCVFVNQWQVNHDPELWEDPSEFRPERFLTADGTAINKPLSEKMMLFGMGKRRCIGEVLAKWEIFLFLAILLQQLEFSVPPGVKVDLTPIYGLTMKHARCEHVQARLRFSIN

The target in assay [2] is Cytochrome P450 2C19 (Homo sapiens, UniProt P33261). Put plainly: Cytochrome panel assay with activity outcomes. Panel member name: p450-cyp2c19 Compounds with AC50 equal or less than 10 uM are considered active. The settings on record: read-out: AC50. The assay is classed as functional.
Sequence of Cytochrome P450 2C19 (P33261 whole entry): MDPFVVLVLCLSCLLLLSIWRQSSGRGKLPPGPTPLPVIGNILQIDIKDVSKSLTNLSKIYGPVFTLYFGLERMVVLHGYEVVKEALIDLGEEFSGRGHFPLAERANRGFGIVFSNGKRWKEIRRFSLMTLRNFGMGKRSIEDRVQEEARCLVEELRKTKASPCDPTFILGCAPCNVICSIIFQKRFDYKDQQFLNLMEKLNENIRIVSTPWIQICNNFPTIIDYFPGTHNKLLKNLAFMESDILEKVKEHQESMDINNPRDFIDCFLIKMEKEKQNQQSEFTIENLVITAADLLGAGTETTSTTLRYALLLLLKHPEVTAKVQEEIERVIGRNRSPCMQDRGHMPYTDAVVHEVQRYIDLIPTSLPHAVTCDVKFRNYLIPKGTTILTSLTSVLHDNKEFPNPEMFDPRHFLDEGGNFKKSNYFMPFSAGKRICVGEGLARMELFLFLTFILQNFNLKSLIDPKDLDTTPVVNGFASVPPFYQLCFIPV
For assay [3], the target named is Cytochrome P450 2D6 (Homo sapiens, UniProt P10635).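 Note: CYP2D6 member of a cytochrome P450 panel assay.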
Sequence of Cytochrome P450 2D6 (P10635 whole entry): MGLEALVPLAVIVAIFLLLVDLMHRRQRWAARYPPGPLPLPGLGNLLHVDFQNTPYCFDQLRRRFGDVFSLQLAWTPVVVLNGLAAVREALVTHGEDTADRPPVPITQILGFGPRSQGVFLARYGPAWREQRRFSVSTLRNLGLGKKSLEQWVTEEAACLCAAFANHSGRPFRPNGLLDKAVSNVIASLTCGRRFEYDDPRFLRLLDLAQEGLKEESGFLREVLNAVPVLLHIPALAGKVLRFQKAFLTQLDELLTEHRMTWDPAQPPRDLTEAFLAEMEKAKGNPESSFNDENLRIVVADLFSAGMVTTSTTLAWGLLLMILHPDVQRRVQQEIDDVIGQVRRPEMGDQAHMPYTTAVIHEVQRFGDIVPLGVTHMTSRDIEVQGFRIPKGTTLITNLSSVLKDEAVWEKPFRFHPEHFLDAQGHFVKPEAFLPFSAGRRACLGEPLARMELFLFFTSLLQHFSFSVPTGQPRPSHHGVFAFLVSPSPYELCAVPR
Assay [4] relates to INS1. Put plainly: INS-1E survival protection against cytokine death – cell-based, luminescence, retest, dose response (AID 449756).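 Note: cell death triggered by IL-1 beta plus TNF-alpha plus IFN-gamma mixture; protective hits raise ATP signal compared with cytokine alone wells.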 The settings on record: Rattus norvegicus. The assay is classed as functional.
Assay [5] is described as follows: Luminescence Cell-Based Dose Confirmation HTS to Identify Inhibitors of Platelet Dense Granule Release. [Related pubchem assays: 1663 (Primary HTS), 1678 (Summary of Project)]. In kind it is functional.
Assay [6] deals with Luciferin 4-monooxygenase (Photinus pyralis, UniProt P08659). Briefly: inhibition of purified Photinus pyralis luciferase – biochemical, luminescence, dose response (AID 1891).
Sequence of Luciferin 4-monooxygenase (P08659 whole entry): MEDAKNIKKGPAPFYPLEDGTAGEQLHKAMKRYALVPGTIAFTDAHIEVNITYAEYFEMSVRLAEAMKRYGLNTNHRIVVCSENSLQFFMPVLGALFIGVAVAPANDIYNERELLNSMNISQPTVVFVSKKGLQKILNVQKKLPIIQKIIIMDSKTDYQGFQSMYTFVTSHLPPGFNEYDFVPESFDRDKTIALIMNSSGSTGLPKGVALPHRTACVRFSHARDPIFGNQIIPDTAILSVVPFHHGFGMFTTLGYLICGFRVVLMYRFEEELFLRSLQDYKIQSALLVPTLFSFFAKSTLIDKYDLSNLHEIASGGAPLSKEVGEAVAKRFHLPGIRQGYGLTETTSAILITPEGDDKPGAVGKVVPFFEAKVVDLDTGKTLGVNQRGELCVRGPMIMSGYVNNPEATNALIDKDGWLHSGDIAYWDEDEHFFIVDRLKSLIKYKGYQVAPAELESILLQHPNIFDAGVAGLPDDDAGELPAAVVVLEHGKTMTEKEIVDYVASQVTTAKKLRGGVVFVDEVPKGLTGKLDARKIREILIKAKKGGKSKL
The target in assay [7] is Cytochrome P450 3A4 (Homo sapiens, UniProt P08684).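 Note: CYP3A4 tested as one member of a cytochrome P450 panel screen.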
Sequence of Cytochrome P450 3A4 (P08684 whole entry): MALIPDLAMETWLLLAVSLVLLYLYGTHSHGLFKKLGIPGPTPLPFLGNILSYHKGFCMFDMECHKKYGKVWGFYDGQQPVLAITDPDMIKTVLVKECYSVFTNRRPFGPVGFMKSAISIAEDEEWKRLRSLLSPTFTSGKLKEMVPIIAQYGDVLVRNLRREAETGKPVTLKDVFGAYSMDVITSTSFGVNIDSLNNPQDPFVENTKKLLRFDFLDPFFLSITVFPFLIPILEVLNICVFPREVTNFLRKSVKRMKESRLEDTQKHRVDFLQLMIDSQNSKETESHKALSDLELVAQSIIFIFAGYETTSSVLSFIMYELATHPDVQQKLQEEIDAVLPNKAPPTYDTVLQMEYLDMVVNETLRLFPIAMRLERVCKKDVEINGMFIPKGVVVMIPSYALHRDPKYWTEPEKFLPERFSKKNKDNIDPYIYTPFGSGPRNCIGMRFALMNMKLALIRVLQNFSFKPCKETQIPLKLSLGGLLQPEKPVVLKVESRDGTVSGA
Assay [8] deals with Cytochrome P450 2C9 (Homo sapiens, UniProt P11712).
Sequence of Cytochrome P450 2C9 (P11712 whole entry): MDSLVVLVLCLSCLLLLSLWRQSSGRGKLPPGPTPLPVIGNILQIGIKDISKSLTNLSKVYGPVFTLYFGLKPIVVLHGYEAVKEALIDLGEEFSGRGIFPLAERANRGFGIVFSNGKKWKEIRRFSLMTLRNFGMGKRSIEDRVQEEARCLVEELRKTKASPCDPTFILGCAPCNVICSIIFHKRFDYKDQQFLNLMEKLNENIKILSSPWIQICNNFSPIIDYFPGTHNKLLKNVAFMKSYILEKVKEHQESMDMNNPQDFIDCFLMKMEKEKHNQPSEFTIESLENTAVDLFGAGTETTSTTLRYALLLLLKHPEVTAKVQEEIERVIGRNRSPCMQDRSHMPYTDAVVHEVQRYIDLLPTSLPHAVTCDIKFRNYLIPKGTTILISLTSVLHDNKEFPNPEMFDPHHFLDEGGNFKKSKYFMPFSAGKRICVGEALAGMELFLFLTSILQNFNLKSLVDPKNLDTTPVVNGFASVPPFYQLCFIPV
The target of assay [9] is T2, Corticotropin-releasing factor receptor 2/Corticotropin-releasing factor-binding protein (Homo sapiens, UniProt P24387+Q13324).
T2 sequence (Q13324 whole entry): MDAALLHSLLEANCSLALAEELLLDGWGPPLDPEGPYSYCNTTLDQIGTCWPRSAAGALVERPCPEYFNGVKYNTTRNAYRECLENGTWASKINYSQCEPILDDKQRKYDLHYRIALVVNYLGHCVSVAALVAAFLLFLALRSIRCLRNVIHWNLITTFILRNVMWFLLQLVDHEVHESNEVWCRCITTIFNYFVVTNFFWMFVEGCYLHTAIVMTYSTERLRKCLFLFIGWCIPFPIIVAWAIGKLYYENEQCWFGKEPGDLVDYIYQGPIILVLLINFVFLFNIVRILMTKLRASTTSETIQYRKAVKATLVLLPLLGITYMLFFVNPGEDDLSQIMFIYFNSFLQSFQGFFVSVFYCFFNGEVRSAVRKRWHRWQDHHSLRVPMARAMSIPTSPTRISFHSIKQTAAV
T2 sequence (P24387 whole entry): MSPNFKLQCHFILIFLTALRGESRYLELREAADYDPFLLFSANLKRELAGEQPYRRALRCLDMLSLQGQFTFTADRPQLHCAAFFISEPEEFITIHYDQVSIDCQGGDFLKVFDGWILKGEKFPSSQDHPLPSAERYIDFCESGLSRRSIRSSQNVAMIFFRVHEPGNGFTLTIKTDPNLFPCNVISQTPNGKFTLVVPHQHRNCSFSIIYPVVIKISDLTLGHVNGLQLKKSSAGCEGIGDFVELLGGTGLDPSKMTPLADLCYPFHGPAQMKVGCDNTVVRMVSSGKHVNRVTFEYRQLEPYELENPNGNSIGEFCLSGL
Briefly: activators of CRF receptor 2 with binding protein – uHTS hits, confirmation (AID 602473). In kind it is functional. The settings on record: read-out: EC50_Mean.

In assay [10] the target is T2, Corticotropin-releasing factor receptor 2/Corticotropin-releasing factor-binding protein. Put plainly: Dose Response confirmation of uHTS hits for small molecule antagonists of the CRF-binding protein and CRF-R2 receptor complex. The settings on record: read-out: IC50_Mean. In kind it is functional.
Assay [11] addresses T3, Rac GTPase-activating protein 1 (Homo sapiens, UniProt Q9H0H5).
T3 sequence (Q9H0H5 whole entry): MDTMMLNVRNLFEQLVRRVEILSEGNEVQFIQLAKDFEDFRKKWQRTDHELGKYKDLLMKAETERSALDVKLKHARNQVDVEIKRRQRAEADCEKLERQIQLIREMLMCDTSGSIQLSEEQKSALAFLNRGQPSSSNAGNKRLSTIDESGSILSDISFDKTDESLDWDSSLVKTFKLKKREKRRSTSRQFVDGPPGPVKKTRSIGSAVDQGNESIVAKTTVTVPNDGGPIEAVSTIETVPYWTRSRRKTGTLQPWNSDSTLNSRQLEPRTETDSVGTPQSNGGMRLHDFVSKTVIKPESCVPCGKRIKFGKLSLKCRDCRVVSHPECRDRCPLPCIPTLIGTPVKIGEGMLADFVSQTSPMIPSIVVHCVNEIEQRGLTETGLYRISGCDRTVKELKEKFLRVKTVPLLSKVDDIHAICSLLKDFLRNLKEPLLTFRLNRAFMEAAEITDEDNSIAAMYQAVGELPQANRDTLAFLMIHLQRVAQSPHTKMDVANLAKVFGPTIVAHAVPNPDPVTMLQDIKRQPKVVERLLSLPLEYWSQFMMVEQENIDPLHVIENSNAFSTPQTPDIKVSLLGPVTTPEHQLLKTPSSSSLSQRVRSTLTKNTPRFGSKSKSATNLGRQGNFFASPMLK
Briefly: blockers of MgcRacGAP-driven Rac1 GTP hydrolysis – biochemical, ADP Hunter fluorescence, primary and confirmatory, confirmation (AID 624330). In kind it is functional.

Assay [12] can be described thus: cells. The assay is classed as functional.
Assay [13] can be described thus: Trypanosoma cruzi growth suppression in host cells – NIH3T3 host cells, beta-gal luminescence, confirmation (AID 2044).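 Note: intracellular parasites grown in NIH/3T3 mouse fibroblasts as host cells; luminescent beta-galactosidase reporter signal from transgenic T. cruzi replicating inside host cells; inhibitors lower the luminescence signal.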 In kind it is functional, cell-based.
Assay [14] in a line: NIH3T3 cell viability loss – ATP luminescence, mouse fibroblasts, counter-screen, dose response (AID 2010).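 Note: cells exposed to compound for about 90 hours before reading.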 In kind it is functional, cell-based. (A counterscreen serves to expose hits that act by an unwanted route or on another target.)
A short description of assay [15]: Luminescence Cell-Based Dose Retest to Confirm Inhibitors of Cancer Stem Cells. [Related pubchem assays (depositor defined):AID2717, AID2721]. The assay is classed as functional. The settings on record: Homo sapiens.
Assay [16] in a line: P. falciparum Dd2 growth inhibitors, dose response, SYBR Green, cherry-picked samples (AID 1159567). In kind it is functional, cell-based.

The source made the active and inactive calls.

As to `O=C(Cn1cc(C(F)(F)F)ccc1=O)N1CCN(S(=O)(=O)c2ccccc2)CC1`, the figures for the concentration at half-maximal activity (AC50) in [1], in assay [2] and in assay [3] were 39.8 µM (inconclusive), 31.6 µM (inconclusive) and 11.2 µM (inconclusive), respectively.

Regarding `N=C(NOC(=O)c1ccc(Cl)cc1Cl)c1ccccn1`, the concentration at half-maximal activity (AC50) in assay [4] is 30 µM (active). Also, the results for the EC50 in assay [5] and in [6] were 3.11 µM (active) and 1.05 µM (active), respectively.

With `COc1ccc(CN=C(S)NNC(=O)c2cc3ccccc3o2)cc1`, the EC50 in assay [5] and in assay [6] was > 112 µM (not active) each time.

In the case of `CCOc1c2ccc(C(=O)N[C@H](C)C3CCCCC3)cc2nn1CC`, the AC50 in [1] is 12.6 µM (inconclusive); in assay [2] it was 28.2 µM (inconclusive); in assay [3], 10 µM (inconclusive); in assay [7], 25.1 µM (inconclusive); in [8] it was 14.1 µM (inconclusive).

With `COc1ccc(O[C@H]2C=C[C@@H](c3ccccc3)O[C@H]2CO/N=C2/[C@H]3O[C@@H]3[C@@H](O)[C@H]3[C@H]2CCn2c(=O)n(-c4ccccc4)c(=O)n23)cc1`, the figures for the AC50 in assay [3] and in assay [8] were 3.98 µM (inconclusive) and 2 µM (inconclusive), respectively.

For `COc1cccc(Oc2ccc(OC)cc2C(=O)O)c1`, the EC50 in assay [9] was > 53 µM (inactive). Besides, the IC50 in assay [10] was > 47.1 µM (inactive).

As for `CSCCO/C(O)=C1/Sc2cc(C)ccc2N=C1C`, the IC50 in assay [11] was 52.9 µM (active).

In the case of `ClCCNc1nc2cc(Cl)ccc2[nH]1`, the AC50 in [2] is 15.8 µM (inconclusive); in [3], 6.31 µM (inconclusive); in assay [8] it was 4.47 µM (inconclusive).

As to `O=C(NCCc1csc(-c2ccccc2)n1)c1c(F)cccc1Cl`, the EC50 in assay [9] is > 53 µM (inactive). Further, the IC50 in assay [10] is > 47.1 µM (inactive).

For `O=C(Nc1ccc(Cl)c(Cl)c1)N1CCC(N2CCCCC2)CC1`, the results for the AC50 in assay [2], in assay [3] and in [7] were 39.8 µM (inconclusive), 10 µM (inconclusive) and 22.4 µM (inconclusive), respectively.

`COc1ccc(N2C(=O)/C(=C/N(C)C)NC2=S)cc1`: the IC50 in assay [11] was 75.4 µM (active).

Take `Cc1cc(NC(=O)c2c(Cl)cccc2Cl)no1`: the EC50 in assay [5] and in assay [6] was > 112 µM (not active) each time.

For the molecule `CCOc1ccccc1Oc1c[nH]nc1-c1ccc(O)cc1O`, the IC50 in assay [11] was 35.5 µM (active).

As for `Nc1nc(O)cc(Nc2ccccc2Cl)n1`, in assay [9], the EC50 was > 53 µM (inactive). Also, the IC50 in assay [10] is > 47.1 µM (inactive).

As for `O=C(NCC1CCCO1)C1c2ccccc2C(=O)N1Cc1ccc2c(c1)OCO2` (stereo not given), the results for the AC50 in [1], in [3] and in assay [8] were 15.8 µM (inconclusive), 15.8 µM (inconclusive) and 11.2 µM (inconclusive), respectively.

For `O=C(OCn1nnc2ccccc2c1=O)C1CCCCC1`, in [12], the IC50 was 6.75 µM (active).

`CCSc1nnc([C@@H](N)Cc2c[nH]c3ccccc23)o1`: the figures for the AC50 in [1] and in [3] were 17.8 µM (inconclusive) and 12.6 µM (inconclusive), respectively.

`Cc1ccc(SCCN2CCN(Cc3ccccc3)CC2)cc1`: the EC50 in [13] is 0.549 µM (active); in assay [14], > 60 µM (not active). Besides, the IC50 in [11] is 84.8 µM (active).

Turning to `O=C(Nc1ccccn1)c1ccc(C(=O)c2ccccc2)cc1`, the IC50 in assay [12] is 32.6 µM (active).

Turning to `COc1ccc(N2CCN(S(=O)(=O)c3c(C)nc4scc(C)n4c3=O)CC2)cc1`, in [11], the IC50 is 209 µM (active).

For `COc1ccc(CCNCc2cccc(C(F)(F)F)c2)cc1OC`, the IC50 in assay [11] is 186 µM (active).

For the molecule `COCC(C)n1c(C)cc(C(=O)CSc2nnc(Nc3ccccc3F)s2)c1C` (stereo not given), the concentration at half-maximal activity (AC50) in assay [1] is 28.2 µM (inconclusive); in assay [3], 25.1 µM (inconclusive).

As to `CCOC(=O)c1cc(NC(=O)Nc2cc(C)ccn2)c(C)nc1C`, in assay [9], the EC50 is > 53 µM (inactive). Moreover, the IC50 in assay [10] was > 47.1 µM (inactive).

Take `SC1=NCN(CCc2ccccc2)CN1Cc1ccccc1`: the EC50 in assay [9] is > 53 µM (inactive). In assay [10], the IC50 is > 47.1 µM (inactive).

As for `CN1CCC(O)(c2ccc(Cl)cc2)C(C(=O)c2ccc(Cl)cc2)C1` (stereo not given), the IC50 in assay [12] is 38.5 µM (active).

In the case of `OC(c1ccccc1)(c1ccccc1)C1CCCN1` (stereo not given), the AC50 in [2] is 1.41 µM (inconclusive); in assay [3] it was 25.1 µM (inconclusive).

For `Cc1ccc(NS(=O)(=O)c2ccc(Cl)c(C(=O)Nc3ccccc3-c3nc4ccccc4[nH]3)c2)cc1C`, the EC50 in [13] is 2.49 µM (active); in assay [5], > 112 µM (not active); in assay [14] it was < 6 µM (inconclusive); in assay [6] it was > 112 µM (not active). Further, the AC50 in assay [15] is 0.647 µM (active).

As for `CC(C)(C)NC[C@H](O)c1ccccc1Cl`, in assay [3], the AC50 was 31.6 µM (inconclusive).

On to `OCCOCCN1CCN(C(S)=Nc2ccccc2)CC1`, for which, in [9], the EC50 was > 53 µM (inactive). Besides, in [10], the IC50 is > 47.1 µM (inactive).

For the molecule `Cc1cc(C)n2nc(CC(=O)NNC(=O)c3ccccc3Cl)nc2n1`, the EC50 in [9] was > 53 µM (inactive). Moreover, the IC50 in [10] is > 47.1 µM (inactive).

As to `CC(=O)C1=C(O)C(=O)N(Cc2ccccc2)C1c1ccc(F)cc1` (stereo not given), in [9], the EC50 is > 53 µM (inactive). Also, the IC50 in assay [10] was > 47.1 µM (inactive).

As to `COc1cc(/C=N/NC(=O)c2ccccn2)ccc1OC(=O)c1cccs1`, in [12], the IC50 was 10.5 µM (active).

Take `COc1ccc(/C=N/NC(=O)c2ccncc2)cc1CN1CCOCC1`: in assay [12], the IC50 was 0.64 µM (active).

With `O=C(N/N=C/c1cccc(OCc2ccccc2)c1)c1cccs1`, the concentration at half-maximal activity (AC50) in assay [3] was 25.1 µM (inconclusive); in [7], 20 µM (inconclusive).

In the case of `CCc1sc(N2[C@@H](C#N)[C@@H](c3ccccc3-c3ccccc3)[C@@H]2CO)nc1C`, the AC50 in assay [16] was 8.33 µM (active).

The term AC50 denotes the midpoint of the concentration-response curve, whichever way the signal moves.
